In ChEMBL document CHEMBL1137480, “Synthesis and structure-activity relationship of 7-(substituted)-aminomethyl-4-quinolone-3-carboxylic acid derivatives” (2007):
In brackets after ≈: the same amount, converted by molar mass.

How the values were obtained:
Assay type in all cases: functional
[1] = system: Klebsiella pneumoniae; experiment: Antibacterial activity against Klebsiella pneumoniae 46101 after 24 hrs by agar dilution method
[2] = system: Staphylococcus epidermidis; experiment: Antibacterial activity against Staphylococcus epidermidis 26069 after 24 hrs by agar dilution method
[3] = system: Salmonella; experiment: Antibacterial activity against […] 48107 after 24 hrs by agar dilution method
[4] = system: Staphylococcus aureus; experiment: Antibacterial activity against Staphylococcus aureus 26003 after 24 hrs by agar dilution method
[5] = system: Streptococcus pneumoniae; experiment: Antibacterial activity against Streptococcus pneumoniae 31002 after 24 hrs by agar dilution method
[6] = system: Shigella boydii; experiment: Antibacterial activity against Shigella boydii 51313 after 24 hrs by agar dilution method

| MIC [1] | MIC [2] | MIC [3] | MIC [4] | MIC [5] | MIC [6] | Compound |
| --- | --- | --- | --- | --- | --- | --- |
| 1.56 µg/mL (≈ 3.92 µM) | 0.78 µg/mL (≈ 1.96 µM) | 1.56 µg/mL (≈ 3.92 µM) | 0.39 µg/mL (≈ 0.979 µM) | 0.098 µg/mL (≈ 0.246 µM) | 1.56 µg/mL (≈ 3.92 µM) | Cc1ccc(NCc2c(F)cc3c(=O)c(C(=O)O)cn(C4CC4)c3c2F)cc1C |
| 0.195 µg/mL (≈ 0.463 µM) | 0.195 µg/mL (≈ 0.463 µM) | 0.39 µg/mL (≈ 0.927 µM) | 0.098 µg/mL (≈ 0.233 µM) | ≤ 0.049 µg/mL | 0.195 µg/mL (≈ 0.463 µM) | C[C@H]1COc2c(CNc3ccc(F)c(Cl)c3)c(F)cc3c(=O)c(C(=O)O)cn1c23 |
| 6.25 µg/mL (≈ 15.5 µM) | 3.13 µg/mL (≈ 7.77 µM) | 6.25 µg/mL (≈ 15.5 µM) | 1.56 µg/mL (≈ 3.87 µM) | 0.195 µg/mL (≈ 0.484 µM) | 1.56 µg/mL (≈ 3.87 µM) | C[C@H]1COc2c(CNc3cccc(Cl)c3)c(F)cc3c(=O)c(C(=O)O)cn1c23 |
| 0.195 µg/mL (≈ 0.583 µM) | > 6.25 µg/mL | 0.39 µg/mL (≈ 1.17 µM) | > 6.25 µg/mL | 3.13 µg/mL (≈ 9.36 µM) | 0.39 µg/mL (≈ 1.17 µM) | CC(C)NCc1c(F)cc2c(=O)c(C(=O)O)cn3c2c1OC[C@@H]3C |
| 0.049 µg/mL (≈ 0.153 µM) | > 6.05 µg/mL | 0.195 µg/mL (≈ 0.609 µM) | > 6.25 µg/mL | 1.56 µg/mL (≈ 4.87 µM) | 0.195 µg/mL (≈ 0.609 µM) | CCNCc1c(F)cc2c(=O)c(C(=O)O)cn3c2c1OC[C@@H]3C |
| 6.25 µg/mL (≈ 15.8 µM) | 3.13 µg/mL (≈ 7.9 µM) | 3.13 µg/mL (≈ 7.9 µM) | 3.13 µg/mL (≈ 7.9 µM) | 0.195 µg/mL (≈ 0.492 µM) | 1.56 µg/mL (≈ 3.94 µM) | Cc1ccc(NCc2c(F)cc3c(=O)c(C(=O)O)cn4c3c2OC[C@@H]4C)cc1C |
| 0.195 µg/mL (≈ 0.583 µM) | > 6.25 µg/mL | 0.39 µg/mL (≈ 1.17 µM) | > 6.25 µg/mL | 3.13 µg/mL (≈ 9.36 µM) | 0.39 µg/mL (≈ 1.17 µM) | CCCNCc1c(F)cc2c(=O)c(C(=O)O)cn3c2c1OC[C@@H]3C |
| 0.049 µg/mL (≈ 0.147 µM) | > 6.25 µg/mL | 0.049 µg/mL (≈ 0.147 µM) | 3.13 µg/mL (≈ 9.42 µM) | 0.39 µg/mL (≈ 1.17 µM) | 0.049 µg/mL (≈ 0.147 µM) | C[C@H]1COc2c(CNC3CC3)c(F)cc3c(=O)c(C(=O)O)cn1c23 |
| 0.78 µg/mL (≈ 2.12 µM) | 1.56 µg/mL (≈ 4.23 µM) | 0.78 µg/mL (≈ 2.12 µM) | 1.56 µg/mL (≈ 4.23 µM) | 0.098 µg/mL (≈ 0.266 µM) | 0.39 µg/mL (≈ 1.06 µM) | C[C@H]1COc2c(CNc3ccccc3)c(F)cc3c(=O)c(C(=O)O)cn1c23 |

More lines, now with the values behind:

| Compound | MIC [1] | MIC [2] | MIC [3] | MIC [4] | MIC [5] | MIC [6] |
| --- | --- | --- | --- | --- | --- | --- |
| CC1COc2c(CN3CCCCC3)c(F)cc3c(=O)c(C(=O)O)cn1c23 (configuration not stated) | 0.39 µg/mL (≈ 1.08 µM) | > 6.25 µg/mL | 0.78 µg/mL (≈ 2.16 µM) | > 6.25 µg/mL | 3.13 µg/mL (≈ 8.69 µM) | 0.098 µg/mL (≈ 0.272 µM) |
| C[C@H]1COc2c(N3CCN(C)CC3)c(F)cc3c(=O)c(C(=O)O)cn1c23.C[C@H]1COc2c(N3CCN(C)CC3)c(F)cc3c(=O)c(C(=O)O)cn1c23.O [LEVOFLOXACIN] | 0.098 µg/mL | 0.78 µg/mL | 0.098 µg/mL | 0.78 µg/mL | 0.195 µg/mL | 0.098 µg/mL |
| C[C@H]1COc2c(CN3CCCCC3)c(F)cc3c(=O)c(C(=O)O)cn1c23 | 0.195 µg/mL (≈ 0.541 µM) | > 6.25 µg/mL | 0.39 µg/mL (≈ 1.08 µM) | > 6.25 µg/mL | 1.56 µg/mL (≈ 4.33 µM) | 0.78 µg/mL (≈ 2.16 µM) |
| O=C(O)c1cn(C2CC2)c2c(F)c(Cn3ccnc3)c(F)cc2c1=O | 0.195 µg/mL (≈ 0.565 µM) | > 6.25 µg/mL | 0.195 µg/mL (≈ 0.565 µM) | 6.25 µg/mL (≈ 18.1 µM) | 0.78 µg/mL (≈ 2.26 µM) | 0.39 µg/mL (≈ 1.13 µM) |
| C[C@H]1COc2c(CN3CCCC3)c(F)cc3c(=O)c(C(=O)O)cn1c23 | 0.049 µg/mL (≈ 0.141 µM) | > 6.25 µg/mL | 0.098 µg/mL (≈ 0.283 µM) | 6.25 µg/mL (≈ 18 µM) | 0.78 µg/mL (≈ 2.25 µM) | 0.39 µg/mL (≈ 1.13 µM) |
| CCNCc1c(F)cc2c(=O)c(C(=O)O)cn(C3CC3)c2c1F | ≤ 0.049 µg/mL | > 6.25 µg/mL | 0.195 µg/mL (≈ 0.605 µM) | > 6.25 µg/mL | 0.78 µg/mL (≈ 2.42 µM) | ≤ 0.049 µg/mL |
| O=C(O)c1cn(C2CC2)c2c(F)c(CNC3CCCCC3)c(F)cc2c1=O | 0.195 µg/mL (≈ 0.518 µM) | 6.25 µg/mL (≈ 16.6 µM) | 0.195 µg/mL (≈ 0.518 µM) | > 6.25 µg/mL | 1.56 µg/mL (≈ 4.14 µM) | 0.78 µg/mL (≈ 2.07 µM) |
| CC(C)CNCc1c(F)cc2c(=O)c(C(=O)O)cn(C3CC3)c2c1F | 0.098 µg/mL (≈ 0.28 µM) | > 6.25 µg/mL | ≤ 0.049 µg/mL | > 6.25 µg/mL | 1.56 µg/mL (≈ 4.45 µM) | 0.195 µg/mL (≈ 0.557 µM) |
| C[C@H]1COc2c(CN3CCN(C)CC3)c(F)cc3c(=O)c(C(=O)O)cn1c23 | 0.78 µg/mL (≈ 2.08 µM) | > 6.25 µg/mL | 1.56 µg/mL (≈ 4.16 µM) | > 6.25 µg/mL | 1.56 µg/mL (≈ 4.16 µM) | 1.56 µg/mL (≈ 4.16 µM) |
| O=C(O)c1cn(C2CC2)c2c(F)c(CNc3cccc(Cl)c3)c(F)cc2c1=O | 1.56 µg/mL (≈ 3.85 µM) | 1.56 µg/mL (≈ 3.85 µM) | 1.56 µg/mL (≈ 3.85 µM) | 0.195 µg/mL (≈ 0.482 µM) | ≤ 0.049 µg/mL | 0.78 µg/mL (≈ 1.93 µM) |
| O=C(O)c1cn(C2CC2)c2c(F)c(CN3CCNCC3)c(F)cc2c1=O | 0.195 µg/mL (≈ 0.537 µM) | 6.25 µg/mL (≈ 17.2 µM) | 0.195 µg/mL (≈ 0.537 µM) | 6.25 µg/mL (≈ 17.2 µM) | 6.25 µg/mL (≈ 17.2 µM) | 0.78 µg/mL (≈ 2.15 µM) |
| CN1CCN(Cc2c(F)cc3c(=O)c(C(=O)O)cn(C4CC4)c3c2F)CC1 | 1.56 µg/mL (≈ 4.13 µM) | 12.5 µg/mL (≈ 33.1 µM) | 1.56 µg/mL (≈ 4.13 µM) | 12.5 µg/mL (≈ 33.1 µM) | 1.56 µg/mL (≈ 4.13 µM) | 1.56 µg/mL (≈ 4.13 µM) |
| CCCCNCc1c(F)cc2c(=O)c(C(=O)O)cn(C3CC3)c2c1F | ≤ 0.049 µg/mL | > 6.25 µg/mL | 0.195 µg/mL (≈ 0.557 µM) | > 6.25 µg/mL | 3.13 µg/mL (≈ 8.93 µM) | 0.39 µg/mL (≈ 1.11 µM) |
